Like-named read-outs stand apart in the source and are kept apart here.

The test system of one data set is MX-1 tumors. The data set is classed as in vivo, mice. The protocol:
MX-1 tumors which are moderately doxorubicin-sensitive, human breast carcinoma xenografts, were implanted subcutaneously (s.c.) and mice were weighed and tumors were measured (by caliper) at least once a week prior to start of dosing (Day 0), then twice a week during the study. Immediately before the start of dosing (Study Day −2 to Day 0), mice were randomized to various groups based on the weight of the tumors. Mice were euthanized after the tumors reached a cutoff weight of 1.5 g (cancer endpoint). Studies were terminated at Day 60.

The test system of another data set is LS174T tumor. The source says: Statistically significant from vehicle control group: *: p<0.05; **: p<0.01 (unpaired t-test).
The next data set concerns HL-60 cells. Put plainly: 3H-thymidine incorporation proliferation assay. It is filed as cell-based. The settings on record: Homo sapiens, HL-60, 24 hours. The protocol: Promyelocytic leukemia cells, HL-60, were cultured in RPMI media containing 10% heat inactivated fetal calf serum (FCS). On the day of the study, the cells were collected, washed and resuspended at a concentration of 0.5×10^6 cells/ml in RPMI containing 10% FCS. 100 μl/well of cell suspension was added to 96 well plates. […] Finally, 10 μl of a 100 μCi/ml ^3H-thymidine was added per well and the plates were incubated for 24 hours. The plates were harvested using a 96 well Harvester (Packard Instruments) and counted on a Packard Top Count counter. Four parameter logistic curves were fitted to the ^3H-thymidine incorporation as a function of drug molarity using Prism software to determine IC50 values.
On the technique in general: Dividing cells build labelled thymidine or BrdU into new DNA.

Data set [1] can be described thus: Aggregation, Centricon ultrafiltration. The data set is classed as physicochemical. As to conditions: 17.4 μMol/ml in distilled water, 2 hr at 1500 g; listed as Dox.
A short description of data set [2]: Single dose Maximum Tolerated Dose (SD-MTD) study.
The nature of data set [3]: Acute toxicity of N-capped prodrugs, intravenous bolus in mice. It is filed as in vivo. As to conditions: intravenous bolus of 250 mg/kg (Dox-HCl eq.), three to five mice per group.
The test system of the next data set is LS174T tumors. Put plainly: LS174T xenograft, five weekly intravenous doses (Example 17).
Where [4] appears, read: 3 mg/kg, 5 doses, one every 7 days.

The TGI is how far tumour growth fell short of that in controls. Read a high TGI as much slowing of growth. One may read the IC50 as the concentration that inhibits the measured activity by half. Lower therefore signals greater potency in that assay. Consider `COc1cccc2c1C(=O)c1c(O)c3c(c(O)c1C2=O)C[C@@](O)(C(=O)CO)C[C@@H]3O[C@H]1C[C@H](N)[C@H](O)[C@H](C)O1` [Doxorubicin], for which, in the data set with MX-1 tumors (setting [4]), the “MDS” value turned out to be 27.3 ± 2.6 days; the “Survival: MDS Extension over controls” value turned out to be 33 ± 13%; the “TGD” value is 6.8 ± 2.7 days; the “Tumor Weight (mg, Day 18)” value is given as 906 ± 150 mg. This compound also registered a TGI in the data set with MX-1 tumors (3 mg/kg, 5 doses, one every 7 days, over control at Day 18) of 22 ± 16%. Also, the “tolerability of dose regimens” value in the data set on MX-1 tumors (mouse, in vivo) was “very well tolerated”. Further, in the data set on LS174T tumor (setting [4]), the “MDS” value was 25.8 ± 2.5 days; the “MDS Extension over controls” value was found to be 3 ± 13%; the “Mean Tumor Weight (mg, Day 19)” value was determined as 1035 ± 180 mg; the “TGD” value was determined as 0.8 ± 3.1 days. The compound also returned a tumour growth inhibition (TGI) in the data set with LS174T tumor (setting [4]) of 0%. In the data set on LS174T tumor (doxorubicin 3 mg/kg), the “efficacy in inhibiting LS-174T tumor and extending survival” value is “ineffective”. Also, in the data set on LS174T tumor (mouse, in vivo), the “tolerability of dose regimens” value is “very well tolerated”. The concentration for half-maximal inhibition (IC50) in the data set with HL-60 cells is 0.075 µM. In data set [1], the “3000 MWCO Filt.” value was found to be 81%.

As for `COc1cccc2c1C(=O)c1c(O)c3c(c(O)c1C2=O)C[C@@](O)(C(=O)CO)C[C@@H]3O[C@H]1C[C@H](NC(=O)[C@H](CC(C)C)NC(=O)[C@H](C)NC(=O)[C@H](CC(C)C)NC(=O)CCNC(=O)CCC(=O)O)[C@H](O)[C@H](C)O1` [Suc-βAla-Leu-Ala-Leu-Dox, succinyl-β-Ala-Leu-Ala-Leu-Dox], the “mice with up to 20% weight loss” value with MX-1 tumors (71 mg/kg group, after Day 46) was “one out of ten”. Further, the “tolerability of dose regimens” value is “very well tolerated” in the data set with MX-1 tumors (all dose regimens, 5 doses, one every 7 days) and “very well tolerated” in the data set with LS174T tumor (all dose regimens, Q7D×5). Moreover, in data set [2] (75 mg/kg dose group), the “mortality by Day 35” value turned out to be 40%. Also, the “acute toxicity within 24 hours” value in data set [2] (50, 75 or 100 mg/kg intravenous bolus) was “no acute toxicity”. Moreover, the “body weight loss (of initial weight)” value in data set [2] (75 and 100 mg/kg dose groups) is > 20%. Also, the “SD-MTD (mg/kg Dox =)” value in data set [2] (doxorubicin equivalents) is given as 28 mg/kg Dox =. The “toxicity profile compared with doxorubicin” value in data set [2] (preliminary observations) is “lack of evidence of characteristic GI-toxicity, cardiotoxicity and myleosuppression of doxorubicin”. Besides, in data set [3], the “survival up to 8 days” value is recorded as “all animals survived”. The “tolerability under repeat-dose levels” value in the data set on LS174T tumors is “safe and well-tolerated”.

(Values after US8034787B2, “Enzyme-cleavable prodrug compounds” (Medarex, Inc., priority 1998, dated 2011).)
